Experimental data: patent US20200087709A1, “DIRECT-TO-CONSUMER GENOMIC DIAGNOSTIC DEVICE” (MicroInvestigate, LLC, priority 2018, published 2020)
Entries after “also recorded” stand apart in the source; their conditions may differ.

Assays:
Experiment in all cases: Antibiotic testing by broth microdilution
Type in all cases: cell-based
[1] = tested on: Streptococcus agalactiae SGBS025; conditions: for resistance or susceptibility by broth dilution: S. agalactiae (ermB positive and mef(A) negative); for MIC: Streptococcus agalactiae, SGBS025, 20 h, S. agalactiae SGBS025, known ermB+, mef(A)−, BHI, 37° C., 20 hour incubation
Experimental: (§1) All bacteria were tested for their antimicrobial susceptibility by broth microdilution. Ampicillin (Cat #97061-442) was obtained from VWR (Amresco) and Erythromycin (Cat # TCE0751-5G) was obtained from VWR (TCI). Bacteria were maintained on blood agar plates at 37° C., and single colonies selected for inoculation into liquid overnight cultures in sterile Brain-Heart Infusion (BHI, VWR Cat #90003-038). For each culture, 5 mL of BHI media was inoculated in a sealed 15 ml falcon tube for overnight incubation at 37° C. (no shaking). Gentle inversion was used to mix the cultures prior to setting up the assay.
(§2) For the experiment, 5 μl of overnight culture was mixed with 5 mL of BMI media (1000× dilution) in a sterile tray and gently mixed. This dilute culture was added at […] per well of a 96-well plate pre-loaded with 20 μl of antibiotic solutions ranging, for erythromycin, from 0.5 to 32 μg/ml (10×) to produce the desired final concentrations of 0.05-3.2 μg/ml. For ampicillin, the stocks were 1.25 μg/ml-80 μg/ml resulting in final concentrations of 0.125 μg/ml-8 μg/ml. The 96-well plate was then transferred to a FilterMax F5 microplate reader for a 20 hour incubation at a temperature of 37° C., with readings taken every 30 minutes. A10-second orbital shaking was performed prior to each reading.

[2] = tested on: Streptococcus pyogenes MGAS6180; conditions: for resistance or susceptibility by broth dilution: S. pyogenes MGAS6180 (mef(A) negative); for MIC: Streptococcus pyogenes, S. pyogenes MGAS6180, known mef(A)−, BHI, 37° C., 20 hour incubation
Experimental: as §1, §2

[3] = tested on: Streptococcus salivarius patient isolate; conditions: for resistance or susceptibility by broth dilution: S. salivarius (mef(A) positive); for MIC: Streptococcus salivarius, 20 h, S. salivarius patient isolate, discovered mef(A)+, BHI, 37° C., 20 hour incubation
Experimental: as §1, §2

[4] = tested on: Streptococcus pyogenes MGAS10394; conditions: for resistance or susceptibility by broth dilution: S. pyogenes MGAS10394 (mef(A) positive); for MIC: Streptococcus pyogenes, MGAS10394, 20 h, S. pyogenes MGAS10394, known mef(A)+, BHI, 37° C., 20 hour incubation
Experimental: as §1, §2

MIC [1] [µg/mL] | MIC [2] [µg/mL] | MIC [3] [µg/mL] | MIC [4] [µg/mL] | Structure (SMILES) | resistance or susceptibility by broth dilution [1] | resistance or susceptibility by broth dilution [2] | resistance or susceptibility by broth dilution [3] | resistance or susceptibility by broth dilution [4]
< 0.125 | < 0.125 | < 0.125 | < 0.125 | CC1(C)S[C@@H]2[C@H](NC(=O)[C@H](N)c3ccccc3)C(=O)N2[C@H]1C(=O)O [ampicillin, Ampicillin] | susceptible | susceptible | susceptible | susceptible
≥ 3.2 | < 0.05 | ≥ 3.2 | ≥ 3.2 | CC[C@H]1OC(=O)[C@H](C)[C@@H](O[C@H]2C[C@@](C)(OC)[C@@H](O)[C@H](C)O2)[C@H](C)[C@@H](O[C@@H]2O[C@H](C)C[C@H](N(C)C)[C@H]2O)[C@](C)(O)C[C@@H](C)C(=O)[C@H](C)[C@@H](O)[C@]1(C)O [erythromycin, Erythromycin] | robust resistance; also recorded: resistant | susceptible | resistant | resistant
